Laboratory results: patent publication US20230049350A1, “COMPOUNDS FOR TREATING BRAIN CANCER” (Purdue Pharmaceutical Products L.P., priority 2014, published 2023)

Assays:
[1] = tested on: MB-468 breast cancer cells; test: Murine model for metastatic breast cancer of the brain, intracerebral MB-468; format: in vivo, mice; details: MB-468 intracerebral; for median survival: single iv dose day +4, EDO-S101 60 mg/kg, bendamustine 50 mg/kg, controls 55 days
Experimental: The procedure of Example 3 was repeated, except the murine models were created with 1×10^5 luciferase-transfected MB-468 breast cancer cells to create a […]. EDO-S101 (60 mg/kg body weight), bendamustine (50 mg/kg body weight) and control was administered intravenously via a tail vein to separate groups of the test mice in a single dose on day +4 post intracerebral implantation of the MB-468 breast cancer cells. […] EDO-S101 therefore appears to be a particularly promising treatment for metastatic brain cancer.

[2] = tested on: GBM12 cells; test: Intracerebral luciferase-transfected GBM12 murine brain tumour model; format: in vivo, athymic mice; details: for median survival: IV weekly day +4, +11, +18, EDO-S101 60 mg/kg, bendamustine 50 mg/kg, controls 52 days
Experimental: Therapeutic activity of EDO-S101 was determined in murine brain tumour models against GBM, based on tumour growth as determined by bioluminescence imaging and survival analysis as determined by Kaplan-Meier analysis.
Murine brain tumour models were created by intracerebral injection of 3×10^5 luciferase-transfected GBM12 cells in athymic mice under aesthesia using a stereotactic platform. GBM12 is a MGMT negative tumour cell line. Eight-week-old athymic mice underwent minimum 7 \-day acclimation/quarantine prior to surgery. Surgery was performed in a laminar flow hood under sterile conditions. Tylenol 300 mg/kg PO was given for analgesia 24 hours before the surgery continuing 48 hours postoperatively. Aesthesia was achieved by inhalation of 1-2% isoflurane. After the mouse became well anesthetized, it was placed in the Kopf stereotactic instrument. A small amount of BNP antibiotic cream (a mixture of Bacitracin, Neomycin and Polymyxin) was smeared on its eyes to prevent infection and corneal damage during surgery. A strip of soft fabric was placed over the mouse’s body and tail to prevent excessive heat loss during surgery. The scalp area was cleaned with a 2% solution of Betadine and dried with cotton tipped applicator. A midline sagittal incision was made in the scalp.
A small burr hole was drilled in the left skull with a surgical drill (Kopf) or a Dremel drill according to the coordinates (AP: 0.5 mm, LM: 2.5 mm) as determined by reference to the mouse brain atlas by Franklin and Paxinos. […] The mice were monitored post-operatively at least twice a day for 5 days or until recovery is complete. […]
After intracerebral injection of the GBM cells, all the mice were subjected to bioluminescence imaging (BLI) twice a week starting at day-4 post-intracerebral injection to monitor the real-time in vivo tumour growth. […] Peak luminescent signals were recorded 10 minutes after luciferin injection. Regions of interest encompassing the intracranial area of signal were defined using Living Image software (Xenogen, Alameda, CA), and the total photons/s/steradian /cm2 was recorded. […]

[3] = tested on: U251-luciferase; test: Orthotopic model of U251-luciferase transfected cells; format: in vivo, mice; details: for mice with tumours of some grade (percent): control 72.7%
Experimental: Mice isotopically transfected with U251-luciferase in accordance with the procedure of Example 3 were treated with radiotherapy (2 Gy for 5 consecutive days), temozolomide (16 mg/kg for 5 consecutive days, po), radiotherapy and temozolomide (2 Gy for 5 consecutive days and 16 mg/kg for 5 consecutive days, po), EDO-S101 (60 mg/kg, intravenously at days 1, 8 and 15 of the treatment cycle) or control vehicle.
Intracranial tumour growth was monitored with the […] imaging system (Caliper Life Sciences, Hopkinton, MA, USA). Mice were anesthetized with 2% to 4% isofluorane (Baxter, Deerfield, IL, USA) followed by intraperitoneal injections of 150 mg/kg d-luciferin (In Vivo Imaging Solutions). Five animals were measured at the same time and the luminescent camera was set to 1 minute exposure, medium binning, 1 f/stop, blocked excitation filter, and open emission filter. The photographic camera was set to 2 s exposure, medium binning, and 8 f/stop. The field of view was set to 22 cm to capture five mice at once. Serial images were taken on a weekly basis using identical settings. Bioluminescence intensity was quantified using the Living Image software (Caliper Life Sciences).
Before any irradiation mice were anesthetized with a mixture of ketamine (25 mg/ml)/xylazine (5 mg/ml). Anesthetized tumour-bearing mice received a focal irradiation at the dose of 2 Gy for 5 consecutive days. Irradiation was delivered using an X-ray linear accelerator at a dose rate of 200 cGy/min at room temperature. All mice were shielded with a specially designed lead apparatus to allow irradiation to the […]. Mice were kept under these conditions until all irradiation finished.
All images were obtained in the transverse plane using the following sequences: transverse T2-weighted turbo spin-echo (TSE) sequence (repetition time [TR] msec/echo time [TE] msec) 6766/120, number of signal acquired 4, matrix of 192 × 192) applied with a section thickness of […], an intersection gap of 0.0 mm, and a flip angle of 160 °. The field of view was 36 × 60 mm^2, which included the tumour in its entirety with a resultant voxel size of 0.3 × 0.3 × 1.0 mm^3.
Continuous variables were summarized as mean and standard deviation (SD) or as median and 95% Cl for the median. For continuous variables not normally distributed, statistical comparisons between control and treated groups were established by carrying out the Kruskal-Wallis Tests. For continuous variables normally distributed, statistical comparisons between control and treated groups were established by carrying out the ANOVA test or by Student t test for unpaired data (for two comparisons).

[4] = drug alone, 50 days after beginning of treatment

Cn1c(CCCCCCC(=O)NO)nc2cc(N(CCCl)CCCl)ccc21 [EDO-S101]
tumour growth ([1]; single iv dose 60 mg/kg day +4): suppression of tumour growth
median survival [1]: 71 days
tumour growth (bioluminescence imaging) ([2]; IV 60 mg/kg day +4, +11, +18): suppression of tumour growth
median survival [2]: 66 days
survival probability versus radiotherapy or temozolomide ([3]; drug alone, 60 mg/kg iv days 1, 8, 15, FIG. 17): significantly greater
mice displaying a large lesion (number) [3, 4]: 1 of the 13
mice with tumours of some grade (number) ([3]; drug alone, 50 days after beginning of treatment, control 8 out of 11): 5 out of 13
mice with tumours of some grade (percent) [3, 4]: 38.5%

Cn1c(CCCC(=O)O)nc2cc(N(CCCl)CCCl)ccc21 [bendamustine]
median survival [1]: 62 days
median survival [2]: 58 days

Cn1nnc2c(C(N)=O)ncn2c1=O [temozolomide]
mice with tumours of some grade (percent) [3, 4]: 38.5%
mice displaying lesions at the end of the study (percent) ([3]; with radiotherapy 2 Gy x 5 days, temozolomide 16 mg/kg po x 5 days): 18.2%
